Source: ChEMBL document CHEMBL1158337, “Synthesis and bioassay of a new class of heterocycles pyrrolyl oxadiazoles/thiadiazoles/triazoles” (Eur J Med Chem, 2009)
In brackets after ≈: the same amount, converted by molar mass.

Key:
[1] = system: Staphylococcus aureus; experiment: Antibacterial activity against Staphylococcus aureus at 100 ug/disk after 24 hrs by agar disc-diffusion method; assay type: functional; settings: read-out: IZ
[2] = system: Staphylococcus aureus; experiment: Antibacterial activity against Staphylococcus aureus at 200 ug/disk after 24 hrs by agar disc-diffusion method; assay type: functional; settings: read-out: IZ
[3] = system: Bacillus subtilis; experiment: Antibacterial activity against Bacillus subtilis at 100 ug/disk after 24 hrs by agar disc-diffusion method; assay type: functional; settings: read-out: IZ
[4] = system: Bacillus subtilis; experiment: Antibacterial activity against Bacillus subtilis at 200 ug/disk after 24 hrs by agar disc-diffusion method; assay type: functional; settings: read-out: IZ
[5] = system: Escherichia coli; experiment: Antibacterial activity against Escherichia coli at 100 ug/disk after 24 hrs by agar disc-diffusion method; assay type: functional; settings: read-out: IZ
[6] = system: Escherichia coli; experiment: Antibacterial activity against Escherichia coli at 200 ug/disk after 24 hrs by agar disc-diffusion method; assay type: functional; settings: read-out: IZ
[7] = system: Klebsiella pneumoniae; experiment: Antibacterial activity against Klebsiella pneumoniae at 100 ug/disk after 24 hrs by agar disc-diffusion method; assay type: functional; settings: read-out: IZ
[8] = system: Klebsiella pneumoniae; experiment: Antibacterial activity against Klebsiella pneumoniae at 200 ug/disk after 24 hrs by agar disc-diffusion method; assay type: functional; settings: read-out: IZ
[9] = system: Fusarium solani; experiment: Antifungal activity against Fusarium solani at 100 ug/disk after 48 hrs by agar disc-diffusion method; assay type: functional; settings: read-out: IZ
[10] = system: Fusarium solani; experiment: Antifungal activity against Fusarium solani at 200 ug/disk after 48 hrs by agar disc-diffusion method; assay type: functional; settings: read-out: IZ
[11] = system: Curvularia lunata; experiment: Antifungal activity against Curvularia lunata at 100 ug/disk after 48 hrs by agar disc-diffusion method; assay type: functional; settings: read-out: IZ
[12] = system: Curvularia lunata; experiment: Antifungal activity against Curvularia lunata at 200 ug/disk after 48 hrs by agar disc-diffusion method; assay type: functional; settings: read-out: IZ
[13] = system: Aspergillus niger; experiment: Antifungal activity against Aspergillus niger at 100 ug/disk after 48 hrs by agar disc-diffusion method; assay type: functional; settings: read-out: IZ
[14] = system: Aspergillus niger; experiment: Antifungal activity against Aspergillus niger at 200 ug/disk after 48 hrs by agar disc-diffusion method; assay type: functional; settings: read-out: IZ
[15] = system: Staphylococcus aureus; experiment: Antibacterial activity against Staphylococcus aureus after 24 hrs by microdilution susceptibility method; assay type: functional
[16] = system: Bacillus subtilis; experiment: Antibacterial activity against Bacillus subtilis after 24 hrs by microdilution susceptibility method; assay type: functional
[17] = system: Escherichia coli; experiment: Antibacterial activity against Escherichia coli after 24 hrs by microdilution susceptibility method; assay type: functional
[18] = system: Klebsiella pneumoniae; experiment: Antibacterial activity against Klebsiella pneumoniae after […] by microdilution susceptibility method; assay type: functional
[19] = system: Fusarium solani; experiment: Antifungal activity against Fusarium solani after 48 hrs by microdilution susceptibility method; assay type: functional
[20] = system: Curvularia lunata; experiment: Antifungal activity against Curvularia lunata after 48 hrs by microdilution susceptibility method; assay type: functional
[21] = system: Aspergillus niger; experiment: Antifungal activity against Aspergillus niger after 48 hrs by microdilution susceptibility method; assay type: functional
[22] = system: A549; experiment: Cytotoxicity against human A549 cells upto 100 uM after 72 hrs by MTT assay in presence of 10% fetal bovine serum; assay type: functional, cell-based
[23] = Cytotoxicity against mink CCL64 cells upto 100 uM after 72 hrs by MTT assay in presence of 0.2% fetal bovine serum; assay type: cell-based; settings: neovison vison, ccl64, 72 h

`Cc1ccc(S(=O)(=O)c2c[nH]cc2S(=O)(=O)Cc2nnc(S)s2)cc1` showed a zone of inhibition at 100 µg/disc [1] of 16 mm, a zone of inhibition at 200 µg/disc [2] of 17 mm and a zone of inhibition at 100 µg/disc [3] of 17 mm. It also gave a zone of inhibition at 200 µg/disc [4] of 19 mm, a zone of inhibition at 100 µg/disc [5] of 18 mm and a zone of inhibition at 200 µg/disc [6] of 20 mm. It also gave a zone of inhibition at 100 µg/disc [7] of 16 mm, a zone of inhibition at 200 µg/disc [8] of 19 mm and a zone of inhibition at 100 µg/disc [9] of 25 mm. The zone of inhibition at 200 µg/disc [10] was 27 mm, the zone of inhibition at 100 µg/disc [11] was 22 mm and the zone of inhibition at 200 µg/disc [12] was 24 mm. The zone of inhibition at 100 µg/disc [13] was 21 mm and the zone of inhibition at 200 µg/disc [14] was 24 mm.
Molecule `Cc1ccc(S(=O)(=O)c2c[nH]cc2S(=O)(=O)Cc2nnc(S)n2N)cc1` has a zone of inhibition at 100 µg/disc [1] of 24 mm, a zone of inhibition at 200 µg/disc [2] of 28 mm and a zone of inhibition at 100 µg/disc [3] of 25 mm. It also gave a zone of inhibition at 200 µg/disc [4] of 27 mm, a zone of inhibition at 100 µg/disc [5] of 20 mm and a zone of inhibition at 200 µg/disc [6] of 24 mm. The zone of inhibition at 100 µg/disc [7] was 21 mm, the zone of inhibition at 200 µg/disc [8] was 23 mm and the zone of inhibition at 100 µg/disc [9] was 29 mm. It also gave a zone of inhibition at 200 µg/disc [10] of 33 mm, a zone of inhibition at 100 µg/disc [11] of 28 mm and a zone of inhibition at 200 µg/disc [12] of 35 mm. For the same molecule, the zone of inhibition at 100 µg/disc [13] was 34 mm and the zone of inhibition at 200 µg/disc [14] was 36 mm.
Work on `Nn1c(S)nnc1CS(=O)(=O)c1c[nH]cc1S(=O)(=O)c1ccccc1` yielded a zone of inhibition at 100 µg/disc [1] of 28 mm, a zone of inhibition at 200 µg/disc [2] of 32 mm and a zone of inhibition at 100 µg/disc [3] of 31 mm. For the same molecule, the zone of inhibition at 200 µg/disc [4] was 35 mm, the zone of inhibition at 100 µg/disc [5] was 22 mm and the zone of inhibition at 200 µg/disc [6] was 26 mm. For the same molecule, the zone of inhibition at 100 µg/disc [7] was 21 mm, the zone of inhibition at 200 µg/disc [8] was 22 mm and the zone of inhibition at 100 µg/disc [9] was 33 mm. The zone of inhibition at 200 µg/disc [10] was 36 mm, the zone of inhibition at 100 µg/disc [11] was 34 mm and the zone of inhibition at 200 µg/disc [12] was 36 mm. For the same molecule, the zone of inhibition at 100 µg/disc [13] was 30 mm, the zone of inhibition at 200 µg/disc [14] was 34 mm and the MIC [15] was 25 µg/mL (≈ 62.6 µM). For the same molecule, the MIC [16] was 100 µg/mL (≈ 250 µM), the MIC [17] was 100 µg/mL (≈ 250 µM) and the MIC [18] was 100 µg/mL (≈ 250 µM). The MIC [19] was 100 µg/mL (≈ 250 µM), the MIC [20] was 100 µg/mL (≈ 250 µM) and the MIC [21] was 100 µg/mL (≈ 250 µM). For the same molecule, the Activity [22] was “Not toxic” and the Activity [23] was “Non-toxic”.
In the case of `O=C(O)c1cn(C2CC2)c2cc(N3CCNCC3)c(F)cc2c1=O` [CIPROFLOXACIN], the zone of inhibition at 100 µg/disc [1] is reported as 34 mm, the zone of inhibition at 200 µg/disc [2] is reported as 38 mm and the zone of inhibition at 100 µg/disc [3] is reported as 36 mm. The zone of inhibition at 200 µg/disc [4] was 42 mm, the zone of inhibition at 100 µg/disc [5] was 40 mm and the zone of inhibition at 200 µg/disc [6] was 45 mm. The zone of inhibition at 100 µg/disc [7] was 37 mm, the zone of inhibition at 200 µg/disc [8] was 42 mm and the MIC [16] was 6.25 µg/mL (≈ 18.9 µM). It also gave an MIC [18] of 6.25 µg/mL (≈ 18.9 µM).
Molecule `O=S(=O)(Cc1nnc(S)o1)c1c[nH]cc1S(=O)(=O)c1ccccc1` has a zone of inhibition at 100 µg/disc [1] of 12 mm, a zone of inhibition at 200 µg/disc [2] of 15 mm and a zone of inhibition at 100 µg/disc [3] of 11 mm. The zone of inhibition at 200 µg/disc [4] was 13 mm, the zone of inhibition at 100 µg/disc [5] was 14 mm and the zone of inhibition at 200 µg/disc [6] was 17 mm. For the same molecule, the zone of inhibition at 100 µg/disc [7] was 13 mm, the zone of inhibition at 200 µg/disc [8] was 16 mm and the zone of inhibition at 100 µg/disc [9] was 18 mm. It also gave a zone of inhibition at 200 µg/disc [10] of 20 mm, a zone of inhibition at 100 µg/disc [11] of 17 mm and a zone of inhibition at 200 µg/disc [12] of 21 mm. The zone of inhibition at 100 µg/disc [13] was 15 mm, the zone of inhibition at 200 µg/disc [14] was 20 mm and the Activity [22] was “Not toxic”. The Activity [23] was “Non-toxic”.
`O=S(=O)(Cc1nnc(S)s1)c1c[nH]cc1S(=O)(=O)c1ccc(Cl)cc1` gave a zone of inhibition at 100 µg/disc [1] of 25 mm, a zone of inhibition at 200 µg/disc [2] of 30 mm and a zone of inhibition at 100 µg/disc [3] of 28 mm. It also gave a zone of inhibition at 200 µg/disc [4] of 32 mm, a zone of inhibition at 100 µg/disc [5] of 22 mm and a zone of inhibition at 200 µg/disc [6] of 27 mm. For the same molecule, the zone of inhibition at 100 µg/disc [7] was 23 mm, the zone of inhibition at 200 µg/disc [8] was 28 mm and the zone of inhibition at 100 µg/disc [9] was 26 mm. The zone of inhibition at 200 µg/disc [10] was 31 mm, the zone of inhibition at 100 µg/disc [11] was 23 mm and the zone of inhibition at 200 µg/disc [12] was 25 mm. It also gave a zone of inhibition at 100 µg/disc [13] of 26 mm, a zone of inhibition at 200 µg/disc [14] of 28 mm and an MIC [15] of 100 µg/mL (≈ 229 µM). For the same molecule, the MIC [16] was 200 µg/mL (≈ 459 µM), the MIC [17] was 200 µg/mL (≈ 459 µM) and the MIC [18] was 200 µg/mL (≈ 459 µM). The MIC [19] was 100 µg/mL (≈ 229 µM), the MIC [20] was 100 µg/mL (≈ 229 µM) and the MIC [21] was 200 µg/mL (≈ 459 µM).
